Source: PubChem BioAssay (NCI)
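Following 48 hours of exposure in 96-well plates, responses at five concentrations were used to interpolate endpoints linearly. At the GI50, growth is halved. TGI denotes the concentration required for complete inhibition of growth.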

Assays:
Experiment in all cases: DTP human tumour cell line panel, 48 h
[1] = tested on: 786-0 renal
[2] = tested on: A498 renal
[3] = tested on: A549 NSCLC
[4] = tested on: ACHN renal
[5] = tested on: BT-549 breast
[6] = tested on: CAKI-1 renal
[7] = tested on: CCRF-CEM leukemia
[8] = tested on: COLO 205 colon
[9] = tested on: DU-145 prostate
[10] = tested on: EKVX NSCLC
[11] = tested on: HCC-2998 colon
[12] = tested on: HCT-116 colon
[13] = tested on: HCT-15 colon
[14] = tested on: HL-60(TB) leukemia
[15] = tested on: HOP-62 NSCLC
[16] = tested on: HOP-92 NSCLC
[17] = tested on: HS 578T breast
[18] = tested on: HT29 colon
[19] = tested on: IGROV1 ovarian
[20] = tested on: K-562 leukemia
[21] = tested on: KM12 colon
[22] = tested on: LOX IMVI melanoma
[23] = tested on: M14 melanoma
[24] = tested on: MALME-3M melanoma
[25] = tested on: MCF7 breast
[26] = tested on: MDA-MB-231 breast
[27] = tested on: MDA-MB-435
[28] = tested on: MOLT-4 leukemia
[29] = tested on: NCI-H226 lung
[30] = tested on: NCI-H23 lung
[31] = tested on: NCI-H460 lung
[32] = tested on: NCI-H522 lung
[33] = tested on: NCI/ADR-RES ovarian
[34] = tested on: OVCAR-3 ovarian
[35] = tested on: OVCAR-4 ovarian
[36] = tested on: OVCAR-5 ovarian
[37] = tested on: OVCAR-8 ovarian
[38] = tested on: PC-3 prostate
[39] = tested on: RPMI-8226 leukemia
[40] = tested on: RXF 393 renal
[41] = tested on: SF-268 CNS
[42] = tested on: SF-295 CNS
[43] = tested on: SF-539 CNS
[44] = tested on: SK-MEL-2 melanoma
[45] = tested on: SK-MEL-28 melanoma
[46] = tested on: SK-MEL-5 melanoma
[47] = tested on: SK-OV-3 ovarian
[48] = tested on: SN12C renal
[49] = tested on: SNB-19 CNS
[50] = tested on: SNB-75 CNS
[51] = tested on: SR leukemia
[52] = tested on: SW-620 colon
[53] = tested on: T-47D breast
[54] = tested on: TK-10 renal
[55] = tested on: U251 CNS
[56] = tested on: UACC-257 melanoma
[57] = tested on: UACC-62 melanoma
[58] = tested on: UO-31 renal

C=C1C(=O)O[C@H]2[C@H]1CC/C(COC(=O)/C=C\C(=O)NCc1ccc(Cn3c(=O)sn(CCCI)c3=O)cc1)=C\CC[C@@]1(C)O[C@@H]21
GI50 [1]: 770 nM
TGI [1]: 1510 nM
GI50 [2]: 831 nM
TGI [2]: 1550 nM
GI50 [3]: 1050 nM
TGI [3]: 2960 nM
GI50 [4]: 413 nM
TGI [4]: 1040 nM
GI50 [5]: 622 nM
TGI [5]: 1450 nM
GI50 [6]: 298 nM
TGI [6]: 999 nM
GI50 [7]: 155 nM
TGI [7]: 1680 nM
GI50 [8]: 568 nM
TGI [8]: 1510 nM
GI50 [9]: 654 nM
TGI [9]: 1310 nM
GI50 [10]: 729 nM
TGI [10]: 1440 nM
GI50 [11]: 909 nM
TGI [11]: 1660 nM
GI50 [12]: 193 nM
TGI [12]: 770 nM
GI50 [13]: 355 nM
TGI [13]: 1120 nM
GI50 [14]: 575 nM
TGI [14]: 2260 nM
GI50 [15]: 1510 nM
TGI [15]: 7680 nM
GI50 [16]: 580 nM
TGI [16]: 1310 nM
GI50 [17]: 851 nM
TGI [17]: 2390 nM
GI50 [18]: 547 nM
TGI [18]: 2460 nM
GI50 [19]: 368 nM
TGI [19]: 1110 nM
GI50 [20]: 312 nM
TGI [20]: 13100 nM
GI50 [21]: 866 nM
TGI [21]: 1730 nM
GI50 [22]: 291 nM
TGI [22]: 983 nM
GI50 [23]: 637 nM
TGI [23]: 1440 nM
GI50 [24]: 707 nM
TGI [24]: 1420 nM
GI50 [25]: 282 nM
TGI [25]: 1090 nM
GI50 [26]: 593 nM
TGI [26]: 1340 nM
GI50 [27]: 605 nM
TGI [27]: 1250 nM
GI50 [28]: 557 nM
TGI [28]: 2990 nM
GI50 [29]: 883 nM
TGI [29]: 2620 nM
GI50 [30]: 788 nM
TGI [30]: 1530 nM
GI50 [31]: 738 nM
TGI [31]: 1580 nM
GI50 [32]: 643 nM
TGI [32]: 1730 nM
GI50 [33]: 988 nM
TGI [33]: 3610 nM
GI50 [34]: 281 nM
TGI [34]: 927 nM
GI50 [35]: 603 nM
TGI [35]: 1290 nM
GI50 [36]: 752 nM
TGI [36]: 1590 nM
GI50 [37]: 771 nM
TGI [37]: 3410 nM
GI50 [38]: 610 nM
TGI [38]: 1440 nM
GI50 [39]: 196 nM
TGI [39]: 1210 nM
GI50 [40]: 423 nM
TGI [40]: 1110 nM
GI50 [41]: 740 nM
TGI [41]: 1440 nM
GI50 [42]: 2190 nM
TGI [42]: 8060 nM
GI50 [43]: 689 nM
TGI [43]: 1340 nM
GI50 [44]: 919 nM
TGI [44]: 1960 nM
GI50 [45]: 800 nM
TGI [45]: 1500 nM
GI50 [46]: 813 nM
TGI [46]: 1490 nM
GI50 [47]: 5080 nM
TGI [47]: 11400 nM
GI50 [48]: 643 nM
TGI [48]: 1500 nM
GI50 [49]: 850 nM
TGI [49]: 1690 nM
GI50 [50]: 442 nM
TGI [50]: 1160 nM
GI50 [51]: 170 nM
TGI [51]: 7800 nM
GI50 [52]: 250 nM
TGI [52]: 891 nM
GI50 [53]: 801 nM
TGI [53]: 2170 nM
GI50 [54]: 758 nM
TGI [54]: 1520 nM
GI50 [55]: 871 nM
TGI [55]: 1950 nM
GI50 [56]: 872 nM
TGI [56]: 1810 nM
GI50 [57]: 732 nM
TGI [57]: 1450 nM
GI50 [58]: 316 nM
TGI [58]: 1020 nM
